These results are taken from patent US10195282B2, “Use of alginate formulation for intraincisional drug delivery” (UNIVERSITY OF SOUTHERN CALIFORNIA, priority 2014, dated 2019).

This data set deals with full thickness incision wounds in a rat model. In words: Scar formation dose-response of NorLeu3-A(1-7) in 2.5% alginate crosslinked with 5 mM CaCl2 (Example 3). It counts as in vivo, Sprague Dawley rats. The note with it: 1 mg/ml in the formulation; compared with surgical and vehicle controls; day 21. The protocol:
This example was designed to determine the formation and remodeling of scar by clinical and histological evaluations in full thickness incision wounds in a rat model. Various doses of active ingredient were delivered in 2.5% alginate crosslinked with 5 mM CaCl2. • Species: • Sprague Dawley • Female (n=5/group for histology; 3/group for tensile strength) • Parameters Measured: • Appearance of Healing Wound (Gross and Histological of Dense Collagen by Image J) • Tensile Strength • Central, Blinded Adjudication of Photos on Day 21 • Photographic serial imaging • Experimental Groups: Surgical control, vehicle (2.5% alginate crosslinked with 5 mM CaCl2) and 2.5% alginate crosslinked with 5 mM CaCl2 with 0.3, 1, 3 or 5 mg/ml DSC127) Methods
Alginate was supplied by FMC BioPolymer. […]
During the experimental period, Sprague Dawley rats, 200-225 grams, were housed one per cage and maintained in a central animal care facility with a 12-hour light/dark cycle. […] The six tests groups that were evaluated are: surgical control, vehicle control and 30, 100, 300 or 500 μg/wound of NorLeu3-A(1-7) in the vehicle. […] The animals were monitored for breathing, urination and movement during the postoperative interval. […] During the first two weeks after surgery, scabbing, dehiscence and inflammation were assessed. […]
Scabbing was assessed on a 4-point scale (0,1,2,3) for none, mild, moderate and severe, respectively. […]

Non-standard residues stand in square brackets, D forms with d. Residues, ends and D or L forms follow the SMILES beside them. Nle = CCCC[C@H](N)C(=O)O

Take `CCCC[C@H](NC(=O)[C@H](CCCNC(=N)N)NC(=O)[C@@H](N)CC(=O)O)C(=O)N[C@@H](Cc1ccc(O)cc1)C(=O)N[C@H](C(=O)N[C@@H](Cc1c[nH]cn1)C(=O)N1CCC[C@H]1C(=O)O)[C@@H](C)CC` [NorLeu3-A(1-7), Asp-Arg-Nle-Tyr-Ile-His-Pro] (H-DR[Nle]YIHP-OH; N-terminus and C-terminus assumed): the “Inflammation at the site of the incision scored on histological sections” value was “trend towards reduced inflammation”.
